In patent US20200131129A1, “FARNESOID X RECEPTOR AGONISTS AND USES THEREOF” (Metacrine, Inc., priority 2017, published 2020) one finds EC50 data, which are given here for 20 compounds.

The target of this assay is T1, hFXR (Homo sapiens, UniProt Q96RI1).
T1 construct: expressed in transfected cells; host or cells: CV-1 cells
T1 sequence (Q96RI1 1-486): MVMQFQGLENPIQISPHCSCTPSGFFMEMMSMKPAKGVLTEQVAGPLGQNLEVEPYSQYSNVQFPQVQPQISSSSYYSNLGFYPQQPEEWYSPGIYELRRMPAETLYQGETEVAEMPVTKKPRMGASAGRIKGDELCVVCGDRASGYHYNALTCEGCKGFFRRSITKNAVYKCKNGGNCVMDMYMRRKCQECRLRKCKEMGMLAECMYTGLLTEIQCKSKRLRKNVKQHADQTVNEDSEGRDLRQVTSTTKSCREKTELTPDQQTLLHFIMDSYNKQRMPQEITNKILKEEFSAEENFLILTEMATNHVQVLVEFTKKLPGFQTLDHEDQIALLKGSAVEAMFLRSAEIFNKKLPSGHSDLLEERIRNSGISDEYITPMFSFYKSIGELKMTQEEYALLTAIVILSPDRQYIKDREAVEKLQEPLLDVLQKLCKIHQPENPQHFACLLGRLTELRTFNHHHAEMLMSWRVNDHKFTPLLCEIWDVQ
T1 sequence (P19793 1-462 partner): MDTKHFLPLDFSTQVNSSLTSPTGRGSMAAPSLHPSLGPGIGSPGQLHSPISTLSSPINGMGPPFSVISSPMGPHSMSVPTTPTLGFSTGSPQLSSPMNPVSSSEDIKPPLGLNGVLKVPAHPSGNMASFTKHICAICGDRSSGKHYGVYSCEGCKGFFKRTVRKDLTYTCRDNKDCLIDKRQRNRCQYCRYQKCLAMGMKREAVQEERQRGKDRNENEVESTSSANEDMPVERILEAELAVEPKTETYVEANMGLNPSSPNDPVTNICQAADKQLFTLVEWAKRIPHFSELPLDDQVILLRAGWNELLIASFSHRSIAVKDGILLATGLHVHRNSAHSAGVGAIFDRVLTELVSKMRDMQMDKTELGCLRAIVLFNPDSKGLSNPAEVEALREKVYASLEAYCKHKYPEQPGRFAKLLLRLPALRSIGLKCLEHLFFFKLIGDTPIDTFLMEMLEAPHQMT
Briefly: In Vitro FXR Assay (TK): hFXR/hRXR TK-ECRE-luc reporter in transfected CV-1 cells. The class given is cell-based. Particulars: CV-1 cells transfected with hFXR, hRXR, 18 hrs incubation, luminescence, maximum efficacy <25% of Fexarmine control also classified as ‘+’. On the procedure:
Example B-1: In Vitro FXR Assay (TK)
CV-1 cells were seeded at a density of 2,000,000 cells in a T175 flask with DMEM+10% charcoal double-stripped FBS and incubated at 37° C. in 5% CO2 for 18 h (O/N).
After 18 h of incubation, the medium in the T175 flask was changed with fresh DMEM+10% charcoal super-stripped serum. In a polypropylene tube, 2500 μL OptiMEM (Life Technologies, Cat #31985-062) was combined with expression plasmids for hFXR, hRXR, TK-ECRE-luc and pCMX-YFP. The tube was then briefly vortexed and incubated at room temperature for 5 minutes. Transfection reagent (X-tremeGENE HP from Roche, Cat #06 366 236 001) was added to the OptiMEM/plasmid mixture vortexed and incubated at room temperature for 20 minutes. Following incubation, the transfection reagent/DNA mixture complex was added to cells in the T175 flask and the cells were incubated at 37° C. in 5% CO2 for 18 h (0/N).
Compounds were serially diluted in DMSO and added to transfected CV-1 cells. The cells were then incubated for 18 hrs. The next day cells were lysed and examined for luminescence.
Turning to `COc1ccc([C@H]2CC[C@H](CN(c3cccc(-c4ccc(N(C)C)nc4)c3)C(=O)[C@H]3CC[C@H](O)CC3)CC2)cc1C` [Compound 1, trans-N-(3-(6-(Dimethylamino)pyridine-3-yl)phenyl)-4-hydroxy-N-((trans-4-(4-methoxy-3-methylphenyl)cyclohexyl)methyl)cyclohexanecarboxamide], the EC50 was no more than 500 nM.
Next, `COc1ccc(-c2cccc(N(C[C@H]3CC[C@H](c4ccc(OC)c(C)c4)CC3)C(=O)[C@H]3CC[C@H](O)CC3)c2)cn1` [Compound 1.01, trans-4-Hydroxy-N-((trans-4-(4-methoxy-3-methylphenyl)cyclohexyl)methyl)-N-(3-(6-methoxypyridin-3-yl)phenyl)cyclohexanecarboxamide]: no more than 500 nM; `COc1ncc(-c2cccc(N(C[C@H]3CC[C@H](c4ccc(OC)c(C)c4)CC3)C(=O)[C@H]3CC[C@H](O)CC3)c2)cn1` [Compound 1.02, trans-4-Hydroxy-N-((trans-4-(4-methoxy-3-methylphenyl)cyclohexyl)methyl)-N-(3-(2-methoxypyrimidin-5-yl)phenyl)cyclohexanecarboxamide]: no more than 500 nM.
The same measure for `COc1ccc(-c2cccc(N(C[C@H]3CC[C@H](c4ccc(OC)c(C)c4)CC3)C(=O)[C@H]3CC[C@H](O)CC3)c2)nc1` [Compound 1.03, trans-4-Hydroxy-N-((trans-4-(4-methoxy-3-methylphenyl)cyclohexyl)methyl)-N-(3-(5-methoxypyridin-2-yl)phenyl)cyclohexanecarboxamide]: no more than 500 nM; for `COc1ccc([C@H]2CC[C@H](CN(c3cccc(-c4ccc(C(F)(F)F)nc4)c3)C(=O)[C@H]3CC[C@H](O)CC3)CC2)cc1C` [Compound 1.04, trans-4-Hydroxy-N-((trans-4-(4-methoxy-3-methylphenyl)cyclohexyl)methyl)-N-(3-(6-(trifluoromethyl)pyridine-3-yl)phenyl)cyclohexanecarboxamide]: no more than 500 nM.
Next, `COc1ccc([C@H]2CC[C@H](CN(c3cccc(-c4cncc(C(F)(F)F)c4)c3)C(=O)[C@H]3CC[C@H](O)CC3)CC2)cc1C` [Compound 1.05, trans-4-Hydroxy-N-((trans-4-(4-methoxy-3-methylphenyl)cyclohexyl)methyl)-N-(3-(5-(trifluoromethyl)pyridine-3-yl)phenyl)cyclohexanecarboxamide]: no less than 1000 nM; `COc1ccc([C@H]2CC[C@H](CN(c3cccc(-c4ccc(OC(C)C)nc4)c3)C(=O)[C@H]3CC[C@H](O)CC3)CC2)cc1C` [Compound 1.06, trans-4-Hydroxy-N-(3-(6-isopropoxypyridin-3-yl)phenyl)-N-((trans-4-(4-methoxy-3-methylphenyl)cyclohexyl)methyl)cyclohexanecarboxamide]: no more than 500 nM.
Turning to `COc1ccc([C@H]2CC[C@H](CN(c3cccc(-c4ccc(C5CC5)nc4)c3)C(=O)[C@H]3CC[C@H](O)CC3)CC2)cc1C` [Compound 1.07, trans-N-(3-(6-Cyclopropylpyridin-3-yl)phenyl)-4-hydroxy-N-((trans-4-(4-methoxy-3-methylphenyl)cyclohexyl)methyl)cyclohexanecarboxamide], the EC50 is no more than 500 nM.
The compound `COc1ccc(-c2cccc(N(C[C@H]3CC[C@H](c4ccc(OC)c(C)c4)CC3)C(=O)[C@H]3CC[C@H](O)CC3)c2)cc1C` [Compound 1.08, trans-4-Hydroxy-N-(4′-methoxy-3′-methyl-[1,1′-biphenyl]-3-yl)-N-((trans-4-(4-methoxy-3-methylphenyl)cyclohexyl)methyl)cyclohexanecarboxamide] showed a half-maximal effective concentration (EC50) of 500 to 1000 nM.
Next, `COc1ccc([C@H]2CC[C@H](CN(c3cccc(-c4cnc(N(C)C)nc4)c3)C(=O)[C@H]3CC[C@H](O)CC3)CC2)cc1C` [Compound 1.09, trans-N-(3-(2-(Dimethylamino)pyrimidin-5-yl)phenyl)-4-hydroxy-N-((trans-4-(4-methoxy-3-methylphenyl)cyclohexyl)methyl)cyclohexanecarboxamide]: no more than 500 nM; `COc1ccc([C@H]2CC[C@H](CN(c3cccc(-c4ccc(N5CCCC5)nc4)c3)C(=O)[C@H]3CC[C@H](O)CC3)CC2)cc1C` [Compound 1.10, trans-4-Hydroxy-N-((trans-4-(4-methoxy-3-methylphenyl)cyclohexyl)methyl)-N-(3-(6-(pyrrolidin-1-yl)pyridine-3-yl)phenyl)cyclohexanecarboxamide]: no more than 500 nM.
The same measure for `COc1ccc([C@H]2CC[C@H](CN(c3cc(-c4ccc(N(C)C)nc4)ccn3)C(=O)[C@H]3CC[C@H](O)CC3)CC2)cc1C` [Compound 1.11, trans-N-(6-(Dimethylamino)-[3,4′-bipyridin]-2′-yl)-4-hydroxy-N-((trans-4-(4-methoxy-3-methylphenyl)cyclohexyl)methyl)cyclohexanecarboxamide]: no more than 500 nM.
As to `COc1cnc(-c2cccc(N(C[C@H]3CC[C@H](c4ccc(OC)c(C)c4)CC3)C(=O)[C@H]3CC[C@H](O)CC3)c2)nc1` [Compound 2.01, trans-4-Hydroxy-N-((trans-4-(4-methoxy-3-methylphenyl)cyclohexyl)methyl)-N-(3-(5-methoxypyrimidin-2-yl)phenyl)cyclohexanecarboxamide], the EC50 is no more than 500 nM.
The same measure for `COc1cnc(-c2cccc(N(C[C@H]3CC[C@H](c4ccc(OC)c(C)c4)CC3)C(=O)[C@H]3CC[C@H](O)CC3)c2)cn1` [Compound 2.02, trans-4-Hydroxy-N-((trans-4-(4-methoxy-3-methylphenyl)cyclohexyl)methyl)-N-(3-(5-methoxypyrazin-2-yl)phenyl)cyclohexanecarboxamide]: no more than 500 nM; for `COc1ccc([C@H]2CC[C@H](CN(c3cccc(-c4ccc(C(C)C)nc4)c3)C(=O)[C@H]3CC[C@H](O)CC3)CC2)cc1C` [Compound 2.03, trans-4-Hydroxy-I-(3-(6-isopropylpyridin-3-yl)phenyl)-N-((trans-4-(4-methoxy-3-methylphenyl)cyclohexyl)methyl)cyclohexanecarboxamide]: no more than 500 nM; for `COc1ccc([C@H]2CC[C@H](CN(c3cccc(-c4nnc(C)s4)c3)C(=O)[C@H]3CC[C@H](O)CC3)CC2)cc1C` [Compound 2.04, trans-4-Hydroxy-N-((trans-4-(4-methoxy-3-methylphenyl)cyclohexyl)methyl)-N-(3-(5-methyl-1,3,4-thiadiazol-2-yl)phenyl)cyclohexanecarboxamide]: no less than 1000 nM.
Next, `COc1ccc([C@H]2CC[C@H](CN(c3cccc(-c4cn(C)nn4)c3)C(=O)[C@H]3CC[C@H](O)CC3)CC2)cc1C` [Compound 2.05, trans-4-Hydroxy-N-((trans-4-(4-methoxy-3-methylphenyl)cyclohexyl)methyl)-N-(3-(1-methyl-1H-1,2,3-triazol-4-yl)phenyl)cyclohexanecarboxamide]: no less than 1000 nM; `COc1ccc([C@H]2CC[C@H](CN(c3cccc(-c4cc(C)ns4)c3)C(=O)[C@H]3CC[C@H](O)CC3)CC2)cc1C` [Compound 2.06, trans-4-Hydroxy-N-((trans-4-(4-methoxy-3-methylphenyl)cyclohexyl)methyl)-N-(3-(3-methylisothiazol-5-yl)phenyl)cyclohexanecarboxamide]: no more than 500 nM.
Next, `COc1ccc([C@H]2CC[C@H](CN(c3cccc(-c4ccsn4)c3)C(=O)[C@H]3CC[C@H](O)CC3)CC2)cc1C` [Compound 2.07, trans-4-Hydroxy-N-(3-(isothiazol-3-yl)phenyl)-N-((trans-4-(4-methoxy-3-methylphenyl)cyclohexyl)methyl)cyclohexanecarboxamide]: 500 to 1000 nM.
Regarding `COc1ccc([C@H]2CC[C@H](CN(c3cccc(-c4nc(C)ns4)c3)C(=O)[C@H]3CC[C@H](O)CC3)CC2)cc1C` [Compound 2.08, trans-4-Hydroxy-N-((trans-4-(4-methoxy-3-methylphenyl)cyclohexyl)methyl)-N-(3-(3-methyl-1,2,4-thiadiazol-5-yl)phenyl)cyclohexanecarboxamide], the EC50 fell in the range of 500 to 1000 nM.

A word on the EC50: it is the concentration needed to bring the measured effect to its halfway point.
